According to patent publication US6365603B1, “Aromatic compounds and pharmaceutical compositions containing them” (Zeneca Ltd., priority 1995, dated 2002):

system: not given; settings: not given

Row | Structure (SMILES) | melting point [°C]
1 | CCCOc1ccc(Br)cc1CN(CC)c1ccc(C(=O)O)nn1 [Example 18, 6-(N-[5-Bromo-2-propoxybenzyl]-N-ethylamino)pyridazine-3-carboxylic acid] | 135 to 137
2 | CCN(Cc1cc(Cl)ccc1OCC1CC1)c1ccc(-c2nnn[nH]2)nn1 [Example 23, 5-[6-(N-[5-Chloro-2-cyclopropylmethoxybenzyl]-N-ethylamino)pyridazin-3-yl]tetrazole] | 190 to 192

The remaining lines, values ahead:

Row | melting point [°C] | Structure (SMILES)
3 | 73 to 80 | CCN(Cc1cc(Br)ccc1OCC1CC1)c1ccc(C(=O)O)nn1 [Example 3, 6-[N-(5-Bromo-2-(cyclopropylmethoxy)benzyl)-N-ethylamino]pyridazine-3-carboxylic acid]
4 | 177 to 178 | CCN(Cc1cc(Cl)ccc1OCC1CC1)c1ccc(C(N)=O)nn1 [Example 21, 6-[N-(5-Chloro-2-(cyclopropylmethoxy)benzyl)-N-ethylamino]pyridazine-3-carboxamide]
5 | 119 to 120 | CCN(Cc1cc(Cl)ccc1OCC1CC1)c1ccc(C(=O)O)nn1 [Example 22, 6-[N-(5-Chloro-2-(cyclopropylmethoxy)benzyl)-N-ethylamino]pyridazine-3-carboxylic acid]

system: EP1 receptors; settings: guinea pig ileum, dog fundus, cat trachea, chick ileum; cited from earlier work

Row | Structure (SMILES) | block of the effect of PGE2 on tissues
6 | CC(=O)NNC(=O)N1Cc2ccccc2Oc2ccc(Cl)cc21 [SC-19220] | blocks the effect of PGE2 on some tissues such as guinea pig ileum or dog fundus but not on other tissues such as the cat trachea or chick ileum
